Values joined by “and” are separate entries in the source; they are usually repeats but may differ in a detail not shown here. Equal values may be shown once. Inconclusive results are not listed.

The subject of the assay is CD8F1 mice, subcutaneous mammary adenocarcinoma, T/C%. In words: NCI In Vivo Anticancer Drug Screen. Data for tumor model Mammary Adenocarcinoma CD8F1 (subcutaneous) in CD8F1. The following applies: higher = larger tumour. The gist of the method: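 Ratio of treated to vehicle-control outcome, based on either survival or tumor size, in mice bearing transplantable tumors given the test compound.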

The mark [1] stands for this setting: endpoint: median tumor weight change, dose: 62.5 mg/kg/injection, schedule: Q01DX001 (ip), vehicle: saline.
Where [2] appears, read: endpoint: median tumor weight change, dose: 125.0 mg/kg/injection, schedule: Q01DX001 (ip), vehicle: saline.
Setting [3] is: endpoint: median tumor weight change, dose: 250.0 mg/kg/injection, schedule: Q01DX001 (ip), vehicle: saline.
[4] abbreviates: endpoint: median tumor weight change, dose: 50.0 mg/kg/injection, schedule: Q01DX001 (ip), vehicle: Klucel (hydroxypropylcellulose) (HPC).
Where [5] appears, read: endpoint: median tumor weight change, dose: 100.0 mg/kg/injection, schedule: Q01DX001 (ip), vehicle: Klucel (hydroxypropylcellulose) (HPC).
The mark [6] stands for this setting: endpoint: median tumor weight (est.), dose: 25.0 mg/kg/injection, schedule: Q07DX005 (ip), vehicle: saline with Tween-80.
Setting [7] is: endpoint: median tumor weight (est.), dose: 6.25 mg/kg/injection, schedule: Q07DX005 (ip), vehicle: saline with Tween-80.
[8] abbreviates: endpoint: median tumor weight (est.), dose: 50.0 mg/kg/injection, schedule: Q07DX005 (ip), vehicle: saline with Tween-80.
Where [9] appears, read: endpoint: median tumor weight (est.), dose: 200.0 mg/kg/injection, schedule: Q07DX005 (ip), vehicle: suspension in saline.
Where [10] appears, read: endpoint: median tumor weight (est.), dose: 400.0 mg/kg/injection, schedule: Q07DX005 (ip), vehicle: suspension in saline.
Setting [11] is: endpoint: median tumor weight (est.), dose: 12.5 mg/kg/injection, schedule: Q07DX005 (ip), vehicle: saline with Tween-80.

In the case of `CCCC(=O)O`, the T/C was 88 % of control (endpoint: median tumor weight change, dose: 7.81 mg/kg/injection, schedule: Q01DX001 (ip), vehicle: saline); 166 % of control (endpoint: median tumor weight change, dose: 15.62 mg/kg/injection, schedule: Q01DX001 (ip), vehicle: saline); 97 % of control (endpoint: median tumor weight change, dose: 31.25 mg/kg/injection, schedule: Q01DX001 (ip), vehicle: saline); 80 % of control under setting [1]; 71 % of control under setting [2].

Regarding `Oc1ccc(CCl)c2cccnc12`, the T/C was 54 % of control under setting [1] and 78 % of control under setting [2].

Consider `N=C1CCCS1`, for which the T/C is 93 % of control under setting [2] and 89 % of control under setting [3].

Regarding `O=c1n(CC2CO2)c(=O)n(CC2CO2)n1CC1CO1` (configuration not stated), under setting [1], the T/C is 29 % of control.

Consider `CN(C1=NS(=O)(=O)N=C(N(C)c2ccccc2)O1)c1ccccc1`, for which the T/C is 86 % of control (endpoint: median tumor weight (est.), dose: 12.5 mg/kg/injection, schedule: Q07DX005 (ip), vehicle: Klucel (hydroxypropylcellulose) (HPC)); 88 % of control (endpoint: median tumor weight (est.), dose: 25.0 mg/kg/injection, schedule: Q07DX005 (ip), vehicle: Klucel (hydroxypropylcellulose) (HPC)); 90 % of control (endpoint: median tumor weight (est.), dose: 50.0 mg/kg/injection, schedule: Q07DX005 (ip), vehicle: Klucel (hydroxypropylcellulose) (HPC)); 123 % of control and 115 % of control (endpoint: median tumor weight (est.), dose: 100.0 mg/kg/injection, schedule: Q07DX005 (ip), vehicle: Klucel (hydroxypropylcellulose) (HPC)); 86 % of control and 111 % of control (endpoint: median tumor weight (est.), dose: 200.0 mg/kg/injection, schedule: Q07DX005 (ip), vehicle: Klucel (hydroxypropylcellulose) (HPC)); 85 % of control (endpoint: median tumor weight (est.), dose: 800.0 mg/kg/injection, schedule: Q07DX005 (ip), vehicle: Klucel (hydroxypropylcellulose) (HPC)). Moreover, the T/C reads like this: under setting [4], 76 % of control; under setting [5], 71 % of control and 75 % of control and 91 % of control; (endpoint: median tumor weight change, dose: 800.0 mg/kg/injection, schedule: Q01DX001 (ip), vehicle: Klucel (hydroxypropylcellulose) (HPC)) 47 % of control and 64 % of control and 69 % of control; (endpoint: median tumor weight change, dose: 1600.0 mg/kg/injection, schedule: Q01DX001 (ip), vehicle: Klucel (hydroxypropylcellulose) (HPC)) 70 % of control.

Turning to `CCCCCCCCCCCCSC1=C(Cl)C(=O)C(OC)=C(OC)C1=O`, the T/C was 89 % of control under setting [6] and 70 % of control (endpoint: median tumor weight (est.), dose: 100.0 mg/kg/injection, schedule: Q07DX005 (ip), vehicle: saline with Tween-80).

`O=S1(=O)C=C(c2ccccc2)C(c2ccccc2)=C1`: the T/C runs as follows: under setting [7], 80 % of control; under setting [6], 72 % of control; under setting [8], 108 % of control.

`N#CCCSC(=S)C1CCCC1=N` (configuration not stated): the T/C is 44 % of control (endpoint: median tumor weight change, dose: 125.0 mg/kg/injection, schedule: Q01DX001 (ip), vehicle: saline with Tween-80); 98 % of control (endpoint: median tumor weight change, dose: 250.0 mg/kg/injection, schedule: Q01DX001 (ip), vehicle: saline with Tween-80); 86 % of control and 108 % of control (endpoint: median tumor weight change, dose: 500.0 mg/kg/injection, schedule: Q01DX001 (ip), vehicle: saline with Tween-80).

For `S=C1CCCCN1`, the T/C (endpoint: median tumor weight change, dose: 37.5 mg/kg/injection, schedule: Q01DX001 (ip), vehicle: distilled water + Tween-80 + alcohol) is 73 % of control; the T/C (endpoint: median tumor weight change, dose: 75.0 mg/kg/injection, schedule: Q01DX001 (ip), vehicle: distilled water + Tween-80 + alcohol) is 111 % of control; the T/C (endpoint: median tumor weight change, dose: 150.0 mg/kg/injection, schedule: Q01DX001 (ip), vehicle: distilled water + Tween-80 + alcohol) is 86 % of control.

Take `CN(C)CCCNc1c2ccccc2nc2cccc([N+](=O)[O-])c12`: the T/C runs as follows: (endpoint: median tumor weight (est.), dose: 0.06 mg/kg/injection, schedule: Q07DX004 (ip), vehicle: saline) 90 % of control; (endpoint: median tumor weight (est.), dose: 15.0 micrograms/kg/injection, schedule: Q07DX005 (ip), vehicle: saline) 86 % of control.

For `COc1cc2cc(c1Cl)N(C)C(=O)CC(OC(=O)CC(C)C)C1(C)OC1C(C)C1CC(O)(NC(=O)O1)C(OC)/C=C/C=C(C)C2` (configuration not stated), the T/C is, setting by setting: (endpoint: median tumor weight (est.), dose: 18.7 micrograms/kg/injection, schedule: Q07DX005 (ip), vehicle: saline + alcohol) 76 % of control; (endpoint: median tumor weight (est.), dose: 37.5 micrograms/kg/injection, schedule: Q07DX005 (ip), vehicle: saline + alcohol) 80 % of control; (endpoint: median tumor weight (est.), dose: 75.0 micrograms/kg/injection, schedule: Q07DX005 (ip), vehicle: saline + alcohol) 85 % of control.

`CC(=O)CC(=O)CCC(=O)O`: the T/C runs as follows: under setting [2], 62 % of control; under setting [3], 65 % of control.

Regarding `Cn1cc(C2NC(=O)c3ccccc3N2)c2ccccc21` (configuration not stated), the T/C was 85 % of control (endpoint: median tumor weight change, dose: 25.0 mg/kg/injection, schedule: Q01DX001 (ip), vehicle: Klucel (hydroxypropylcellulose) (HPC)); 85 % of control under setting [4]; 91 % of control under setting [5]; 71 % of control (endpoint: median tumor weight change, dose: 200.0 mg/kg/injection, schedule: Q01DX001 (ip), vehicle: Klucel (hydroxypropylcellulose) (HPC)); 68 % of control (endpoint: median tumor weight change, dose: 500.0 mg/kg/injection, schedule: Q01DX001 (ip), vehicle: Klucel (hydroxypropylcellulose) (HPC)); 33 % of control (endpoint: median tumor weight change, dose: 1000.0 mg/kg/injection, schedule: Q01DX001 (ip), vehicle: Klucel (hydroxypropylcellulose) (HPC)).

For the compound `Cc1cc(O)c(N=Nc2ccc(C(=O)O)cc2)cc1C`, the T/C reads like this: (endpoint: mean tumor weight (est.), dose: 200.0 mg/kg/injection, schedule: Q07DX001 (ip), vehicle: carboxymethylcellulose (CMC)) 82 % of control; (endpoint: mean tumor weight (est.), dose: 400.0 mg/kg/injection, schedule: Q07DX001 (ip), vehicle: carboxymethylcellulose (CMC)) 74 % of control; (endpoint: mean tumor weight, dose: 100.0 mg/kg/injection, schedule: Q07DX007 (ip), vehicle: saline) 106 % of control; (endpoint: mean tumor weight, dose: 200.0 mg/kg/injection, schedule: Q07DX007 (ip), vehicle: saline) 20 % of control; (endpoint: mean tumor weight, dose: 400.0 mg/kg/injection, schedule: Q07DX007 (ip), vehicle: saline) 35 % of control; (endpoint: median tumor weight (est.), dose: 25.0 mg/kg/injection, schedule: Q07DX005 (ip), vehicle: suspension in saline) 98 % of control. The T/C (endpoint: median tumor weight (est.), dose: 50.0 mg/kg/injection, schedule: Q07DX005 (ip), vehicle: suspension in saline) was 90 % of control; the T/C (endpoint: median tumor weight (est.), dose: 100.0 mg/kg/injection, schedule: Q07DX005 (ip), vehicle: suspension in saline) is 98 % of control; the T/C under setting [9] is 108 % of control; the T/C under setting [10] is 98 % of control.

On to `CC(=Nc1ccccc1)C1=C(O)C(Cc2ccccc2)NC1=O` (configuration not stated), for which the T/C by setting is: under setting [11], 218 % of control and 100 % of control; under setting [8], 89 % of control; (endpoint: median tumor weight (est.), dose: 200.0 mg/kg/injection, schedule: Q07DX005 (ip), vehicle: saline with Tween-80) 211 % of control and 85 % of control; (endpoint: median tumor weight (est.), dose: 400.0 mg/kg/injection, schedule: Q07DX005 (ip), vehicle: saline with Tween-80) 39 % of control and 62 % of control.

Consider `O=c1ccc2ccccc2o1`, for which the T/C (endpoint: median tumor weight change, dose: 125.0 mg/kg/injection, schedule: Q01DX001 (ip), vehicle: Klucel (hydroxypropylcellulose) (HPC)) is 90 % of control.

`CC(C)NC(=O)OCc1c(COC(=O)NC(C)C)c(-c2ccc(Cl)c(Cl)c2)n2c1CCC2`: the T/C by setting is: (endpoint: median tumor weight (est.), dose: 12.5 mg/kg/injection, schedule: Q07DX005 (ip), vehicle: distilled water + Tween-80) 67 % of control; (endpoint: median tumor weight (est.), dose: 25.0 mg/kg/injection, schedule: Q07DX005 (ip), vehicle: distilled water + Tween-80) 120 % of control; (endpoint: median tumor weight (est.), dose: 50.0 mg/kg/injection, schedule: Q07DX005 (ip), vehicle: distilled water + Tween-80) 21 % of control; (endpoint: median tumor weight (est.), dose: 100.0 mg/kg/injection, schedule: Q07DX005 (ip), vehicle: distilled water + Tween-80) 6 % of control.

On to `O=C1c2ccccc2C(=O)c2c(NCCNCCO)ccc(O)c21`, for which the T/C was 91 % of control (endpoint: median tumor weight change, dose: 25.0 mg/kg/injection, schedule: Q01DX001 (ip), vehicle: saline with Tween-80); 44 % of control (endpoint: median tumor weight change, dose: 50.0 mg/kg/injection, schedule: Q01DX001 (ip), vehicle: saline with Tween-80); 41 % of control (endpoint: median tumor weight change, dose: 100.0 mg/kg/injection, schedule: Q01DX001 (ip), vehicle: saline with Tween-80); 33 % of control (endpoint: median tumor weight change, dose: 200.0 mg/kg/injection, schedule: Q01DX001 (ip), vehicle: saline with Tween-80).

For the compound `C=CC(=O)N1CN(C(=O)C=C)CN(C(=O)C=C)C1`, the T/C (endpoint: median tumor weight (est.), dose: 3.12 mg/kg/injection, schedule: Q07DX005 (ip), vehicle: saline with Tween-80) was 89 % of control; the T/C under setting [7] is 111 % of control; the T/C under setting [11] is 31 % of control.

Take `Cc1cc2nc3c(=O)[nH]c(=O)nc-3n(CC(O)C(O)C(O)C(O)CO)c2cc1C` (configuration not stated): the T/C under setting [9] was 87 % of control and 100 % of control; the T/C under setting [10] is 58 % of control and 64 % of control.

Source of the values: PubChem BioAssay AID220 (DTP/NCI, 2004).
